# Data taken from patent publication US6881741B2 (ViroChem Pharma Inc., priority 2001, dated 2005).
# pIC50: −log10 of the molar value.
# Target: recombinant HCV NS5B (HCV RNA-dependent RNA polymerase) (Hepatitis C virus genotype 1b, UniProt P26663)
# Experiment: biochemical
# Settings: HCV polymerase activity, list of compounds of Example 27; read-out: IC50 (polymerase activity)
# recombinant HCV NS5B (HCV RNA-dependent RNA polymerase), sequence (P26663 2420-3010 limits assumed): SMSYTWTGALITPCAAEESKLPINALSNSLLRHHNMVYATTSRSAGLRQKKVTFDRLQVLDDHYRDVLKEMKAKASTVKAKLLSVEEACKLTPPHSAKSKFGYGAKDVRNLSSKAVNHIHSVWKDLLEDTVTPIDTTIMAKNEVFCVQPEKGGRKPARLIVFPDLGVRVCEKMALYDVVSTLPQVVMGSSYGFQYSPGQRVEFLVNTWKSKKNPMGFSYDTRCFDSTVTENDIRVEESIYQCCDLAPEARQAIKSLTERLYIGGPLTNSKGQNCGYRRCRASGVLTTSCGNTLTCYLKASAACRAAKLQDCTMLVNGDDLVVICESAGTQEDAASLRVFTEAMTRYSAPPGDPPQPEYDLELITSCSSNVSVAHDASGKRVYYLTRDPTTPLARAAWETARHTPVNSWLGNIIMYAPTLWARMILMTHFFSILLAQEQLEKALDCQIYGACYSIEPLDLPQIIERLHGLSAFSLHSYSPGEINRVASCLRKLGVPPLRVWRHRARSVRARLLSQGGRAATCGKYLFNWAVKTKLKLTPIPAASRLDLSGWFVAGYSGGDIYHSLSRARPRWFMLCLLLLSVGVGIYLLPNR
row,SMILES,pIC50
1,"CCC(=O)N(Cc1ccc(Cl)cc1)c1cc(-c2ccccc2)sc1C(=O)O [Compound 456, 3-[(4-CHLORO-BENZYL)-PROPIONYL- AMINO]-5-PHENYL-THIOPHENE-2- CARBOXYLIC ACID]",> 5.30
2,"CO[C@H]1CCCCC1N(C(=O)c1ccc(Cl)cc1Cl)c1cc(-c2ccccc2)sc1C(=O)O (stereo partly shown) [Compound 534, 3-[(2-DICHLORO-BENZOYL)-(2- METHOXY-CYCLOHEXYL)-AMINO]-5- PHENYL-THIOPHENE-2- CARBOXYLIC ACID]",> 5.30
3,"CC1CCC(C(=O)N(c2cc(-c3ccccc3)sc2C(=O)O)C(C)C)C(C)C1 (stereo not shown) [Compound 407, 3-[(2,4-DIMETHYL- CYCLOHEXANECARBONYL)-ISOPROPYL- AMINO]-5-PHENYL-THIOPHENE-2- CARBOXYLIC ACID]",> 5.30
4,"N=C(N)N1CCC(N(C(=O)c2ccc(Cl)cc2Cl)c2cc(-c3ccccc3)sc2C(=O)O)CC1 [Compound 506, 3-[(1-CARBAMIMIDOYL-PIPERIDIN-4-YL)- (2,4-DICHLORO-BENZOYL)-AMINO]-5- PHENYL-THIOPHENE-2-CARBOXYLIC ACID]",> 5.30
5,"CC(C)(C)c1ccc(CN(C(=O)C2CCCCC2)c2cc(-c3ccccc3)sc2C(=O)O)cc1 [Compound 441, 3-[(4-TERT-BUTYL-BENZYL)- CYCLOHEXANECARBONYL-AMINO]-5- PHENYL-THIOPHENE-2-CARBOXYLIC ACID]",> 5.30
6,"CCCC(=O)N(Cc1cccc(C)c1)c1cc(-c2ccccc2)sc1C(=O)O [Compound 446, 3-[BUTYRYL-(3-METHYL-BENZYL)- AMINO]-5-PHENYL-THIOPHENE-2- CARBOXYLIC ACID]",4.70 to 5.30
7,"CCCC(=O)N(Cc1ccc(Cl)cc1)c1cc(-c2ccccc2)sc1C(=O)O [Compound 462, 3-[BUTYRYL-(4-CHLORO-BENZYL)- AMINO]-5-PHENYL-THIOPHENE-2- CARBOXYLIC ACID]",4.70 to 5.30
8,"Cc1ccc(CN(C(=O)C(C)C)c2cc(-c3ccccc3)sc2C(=O)O)cc1 [Compound 468, 3-[ISOBUTYRYL-(4-METHYL-BENZYL)- AMINO]-5-PHENYL-THIOPHENE-2- CARBOXYLIC ACID]",4.70 to 5.30
9,"CC(C)N(c1cc(-c2ccc(-c3ccc(Cl)cc3)cc2)sc1C(=O)O)C(=O)[C@H]1CC[C@H](C)CC1 [Compound 571, 5-(4′-CHLORO-BIPHENYL-4-YL)-3- [ISOPROPYL-(4-METHYL- CYCLOHEXANECARBONYL)-AMINO]- THIOPHENE-2-CARBOXYLIC ACID]",> 5.30
10,"CCC(=O)N(Cc1cccc(OC)c1)c1cc(-c2ccccc2)sc1C(=O)O [Compound 471, 3-[(3-METHOXY-BENZYL)-PROPIONYL- AMINO]-5-PHENYL-THIOPHENE-2- CARBOXYLIC ACID]",< 4.70
11,"C=CCN(C(=O)Cc1ccc(OC)cc1)c1cc(-c2ccccc2)sc1C(=O)O [Compound 491, 3-{ALLYL-[2-(4-METHOXY-PHENYL)- ACETYL]-AMINO}-5-PHENYL-THIOPHENE- 2-CARBOXYLIC ACID]",< 4.70
12,"Cc1ccc(CN(C(=O)C2CC2)c2cc(-c3ccccc3)sc2C(=O)O)cc1 [Compound 469, 3-[CYCLOPROPANECARBONYL-(4- METHYL-BENZYL)-AMINO]-5-PHENYL- THIOPHENE-2-CARBOXYLIC ACID]",4.70 to 5.30
13,"CC1=CCC(C(=O)N(c2cc(-c3ccccc3)sc2C(=O)O)C(C)C)C1 (stereo not shown) [Compound 405, 3-[ISOPROPYL-(3-METHYL-CYCLOPENT- 3-ENECARBONYL)-AMINO]-5-PHENYL- THIOPHENE-2-CARBOXYLIC ACID]",> 5.30
14,"CC1CCC(C(=O)N(c2cc(-c3ccccc3)sc2C(=O)O)C2CCCCC2)CC1 (stereo not shown) [Compound 579, 3-[CYCLOHEXYL-(4-METHYL- CYCLOHEXANECARBONYL)-AMINO]-5- PHENYL-THIOPHENE-2-CARBOXYLIC ACID]",> 5.30

# Same assay, conditions: IC50
row,SMILES,pIC50
1,"CC1CCC(C(=O)N(c2cc(-c3ccccc3)sc2C(=O)O)C(C)C)CC1 (stereo not shown) [Compound 317, 3-[ISOPROPYL-(4-METHYL- CYCLOHEXANECARBONYL)-AMINO]-5- PHENYL-THIOPHENE-2-CARBOXYLIC ACID]",> 5.30

# Same assay, conditions: related polymerase activity (Example 27 list); read-out: IC50
row,SMILES,pIC50
1,"CC(C)N(C(=O)c1ccccc1Cl)c1cc(-c2ccccc2)sc1C(=O)O [Compound 218, 3-[(2-CHLORO-BENZOYL)-ISOPROPYL-AMINO]-5-PHENYL-THIOPHENE-2-CARBOXYLIC ACID]",4.70 to 5.30
2,"CC1CCC(C(=O)N(c2cc(-c3cccc([N+](=O)[O-])c3)sc2C(=O)O)C(C)C)CC1 (stereo not shown) [Compound 383, 3-[ISOPROPYL-(4-METHYL- CYCLOHEXANECARBONYL)-AMINO]-5-(3- NITRO-PHENYL)-THIOPHENE-2- CARBOXYLIC ACID]",> 5.30
3,"O=C(Nc1cc(-c2ccccc2)sc1C(=O)O)c1ccc(Cl)cc1 [Compound 72, 3-(4-CHLORO-BENZOYLAMINO)-5-PHENYL-THIOPHENE-2-CARBOXYLIC ACID]",4.70 to 5.30
4,"CC(=O)c1ccc(-c2cc(NS(=O)(=O)c3ccc(C)cc3)c(C(=O)O)s2)cc1 [Compound 237, 5-(4-ACETYL-PHENYL)-3-(TOLUENE-4-SULFONYLAMINO)-THIOPHENE-2-CARBOXYLIC ACID]",> 5.30
5,"CN(C(=O)c1ccccc1Cl)c1cc(-c2ccccc2)sc1C(=O)O [Compound 95, 3-[(2-CHLORO-BENZOYL)-METHYL-AMINO]-5-PHENYL-THIOPHENE-2-CARBOXYLIC ACID]",4.70 to 5.30
6,"C=CCN(C(=O)CCCCC)c1cc(-c2ccccc2)sc1C(=O)O [Compound 397, 3-(ALLYL-HEXANOYL-AMINO)-5-PHENYL- THIOPHENE-2-CARBOXYLIC ACID]",4.70 to 5.30
7,"Cc1ccc(C(=O)N(C)c2cc(-c3ccc(F)cc3)sc2C(=O)O)cc1 [Compound 197, 5-(4-FLUORO-PHENYL)-3-[METHYL-(4-METHYL-BENZOYL)-AMINO]-THIOPHENE-2-CARBOXYLIC ACID]",> 5.30
8,"O=C(O)c1sc(-c2ccccc2)cc1NCc1ccc(Cl)cc1Cl [Compound 48, 3-(2,4-DICHLORO-BENZYLAMINO)-5-PHENYL-THIOPHENE-2-CARBOXYLIC ACID]",> 5.30
9,"Cc1cccc(C)c1S(=O)(=O)Nc1cc(-c2ccccc2)sc1C(=O)O [Compound 285, 3-(2,6-DIMETHYL-BENZENESULFONYLAMINO)-5-PHENYL-THIOPHENE-2-CARBOXYLIC ACID]",> 5.30
10,"COc1cc(C)ccc1C(=O)N(C)c1cc(-c2ccccc2)sc1C(=O)O [Compound 205, 3-[(2-METHOXY-4-METHYL-BENZOYL)-METHYL-AMINO]-5-PHENYL-THIOPHENE-2-CARBOXYLIC ACID]",4.70 to 5.30
11,"Cc1ccccc1S(=O)(=O)Nc1cc(/C=C/c2ccc(Cl)cc2)sc1C(=O)O [Compound 134, 5-[2-(4-CHLORO-PHENYL)-VINYL]-3-(TOLUENE-2-SULFONYLAMINO)-THIOPHENE-2-CARBOXYLIC ACID]",4.70 to 5.30
12,"O=C(O)c1sc(-c2ccccc2)cc1N(C(=O)c1ccc(Cl)cc1Cl)C1CCN(C(=O)c2ccc(Cl)cc2Cl)CC1 [Compound 363, 3-[(2,4-DICHLORO-BENZOYL)-[1-(2,4- DICHLORO-BENZOYL)-PIPERIDIN-4-YL]- AMINO)-5-PHENYL-THIOPHENE-2- CARBOXYLIC ACID]",> 5.30
13,"Cc1ccc(C(=O)Nc2cc(-c3ccccc3)sc2C(=O)O)cc1 [Compound 92, 3-(4-METHYL-BENZOYLAMINO)-5-PHENYL-THIOPHENE-2-CARBOXYLIC ACID]",4.70 to 5.30
14,"COC(=O)c1sc(-c2ccccc2)cc1N(C(=O)c1ccc(Cl)cc1Cl)C(C)C [Compound 287, 3-[(2,4-DICHLORO-BENZOYL)-ISOPROPYL-AMINO]-5-PHENYL-THIOPHENE-2-CARBOXYLIC ACID METHYL ESTER]",4.70 to 5.30
15,"Cc1ccccc1S(=O)(=O)Nc1cc(-c2ccc(S(C)(=O)=O)cc2)sc1C(=O)O [Compound 89, 5-(4-METHANESULFONYL-PHENYL)-3-(TOLUENE-2-SULFONYLAMINO)-THIOPHENE-2-CARBOXYLIC ACID]",> 5.30
16,"Cc1ccccc1S(=O)(=O)Nc1cc(-c2ccc(Cl)c(Cl)c2)sc1C(=O)O [Compound 85, 5-(3,4-DICHLORO-PHENYL)-3-(TOLUENE-2-SULFONYLAMINO)-THIOPHENE-2-CARBOXYLIC ACID]",4.70 to 5.30
17,"CC(C)Cc1cc(N(C(=O)c2ccc(Cl)cc2Cl)C(C)C)c(C(=O)O)s1 [Compound 346, 3-[(2,4-DICHLORO-BENZOYL)- ISOPROPYL-AMINO]-5-ISOBUTYL- THIOPHENE-2-CARBOXYLIC ACID]",> 5.30
18,"CC(C)N(C(=O)c1ccc(C(F)(F)F)cc1F)c1cc(-c2ccccc2)sc1C(=O)O [Compound 326, 3-[(2-FLUORO-4-TRIFLUOROMETHYL- BENZOYL)-ISOPROPYL-AMINO]-5- PHENYL-THIOPHENE-2-CARBOXYLIC ACID]",> 5.30
19,"O=C(O)c1sc(-c2ccccc2)cc1NS(=O)(=O)c1cccc([N+](=O)[O-])c1 [Compound 147, 3-(3-NITRO-BENZENESULFONYLAMINO)-5-PHENYL-THIOPHENE-2-CARBOXYLIC ACID]",> 5.30
20,"O=C(O)c1sc(-c2ccccc2)cc1NS(=O)(=O)c1cccc(C(F)(F)F)c1 [Compound 50, 5-PHENYL-3-(3-TRIFLUOROMETHYL-BENZENESULFONYLAMINO)-THIOPHENE-2-CARBOXYLIC ACID]",4.70 to 5.30
21,"O=C(O)c1cc(S(=O)(=O)Nc2cc(-c3ccccc3)sc2C(=O)O)c(F)cc1Cl [Compound 221, 3-(5-CARBOXY-4-CHLORO-2-FLUORO-BENZENESULFONYLAMINO)-5-PHENYL-THIOPHENE-2-CARBOXYLIC ACID]",< 4.70
22,"CC(C)N(C(=O)c1ccc(Cl)cc1[N+](=O)[O-])c1cc(-c2ccccc2)sc1C(=O)O [Compound 329, 3-[(4-CHLORO-2-NITRO-BENZOYL)- ISOPROPYL-AMINO]-5-PHENYL- THIOPHENE-2-CARBOXYLIC ACID]",> 5.30
23,"CC(C)(C)c1ccc(S(=O)(=O)Nc2cc(-c3ccccc3)sc2C(=O)O)cc1 [Compound 32, 3-(4-TERT-BUTYL-BENZENESULFONYLAMINO)-5-PHENYL-THIOPHENE-2-CARBOXYLIC ACID]",4.70 to 5.30
24,"Cc1ccccc1S(=O)(=O)Nc1cc(-c2cc(NS(=O)(=O)c3ccccc3C)c(C(=O)O)s2)sc1C(=O)O [Compound 161, 4,4′-BIS-(TOLUENE-2-SULFONYLAMINO)-[2,2′]BITHIOPHENYL-5,5′-DICARBOXYLIC ACID]",> 5.30
25,"Cc1ccccc1S(=O)(=O)Nc1cc(-c2ccc(NS(C)(=O)=O)cc2)sc1C(=O)O [Compound 369, 5-(4-METHANESULFONYLAMINO- PHENYL)-3- (TOLUENE-2-SULFONYLAMINO)- THIOPHENE- 2-CARBOXYLIC ACID]",4.70 to 5.30
